{"source": "patent US20260258016A1", "about": "“SUBSTITUTED PYRIDAZINE-3-CARBOXAMIDE COMPOUND SERVING AS TYK2 INHIBITOR” (Guangzhou Fermion Technology Co., Ltd., priority 2022, published 2026)", "key": {"[1]": {"tested_on": "IL-2-induced STAT5 phosphorylation (JAK1/3) in CD3+ cells of human PBMC", "assay": "IL-2-induced STAT5 phosphorylation (JAK1/3) in CD3+ cell subpopulations in human PBMC, flow cytometry", "type": "cell-based", "conditions": "IL-2 stimulation 20 min, read-out: IL-2-induced CD3+ pSTAT5 (JAK1/3) in hPBMC (IC50)", "protocol": "Purpose: The purpose of this test case was to test the inhibitory effect of the compound on IL-2-induced STAT5 phosphorylation using protein phosphorylation flow cytometric analysis technology.\nHuman PBMC cells were pre-incubated with the compounds, STAT5 was induced to phosphorylate under appropriate stimulation conditions, and corresponding cell subpopulations and targets were stained. Flow cytometry was used to read cell data and analyze the strength of phosphorylated antibody signals under different compound concentrations. PBMCs were resuspended and dispensed into a 96-well plate, 62.5 μL/well. 3.5 μL of 20× compound working solutions were added and incubated at 37° C. for 30 minutes. 5 μL of PE mouse anti-human CD3 (BD) was added and incubated for 30 min at 37° C. in the dark. 4 μL of 20×IL-2 (R&D) was added to each well and incubated at 37° C. in the dark for 20 minutes. All cells in the 96-well plate were transferred to a deep-well plate, 400 μL of a fixation working solution (Biolegend) was added to each well, and incubated at room temperature in the dark for 20 minutes. The cells were washed twice with PBS, and 400 μL of Perm Buffer III (BD) was added and incubated at 4° C. in the dark for 40 minutes. The cells were washed twice with PBS, and 100 μL of a STAT5 pY694 antibody working solution (BD) was added and incubated at room temperature for 40 minutes. After washing once with PBS, the cells were resuspended in 200 μL of a staining buffer and transferred to a sample plate. The antibody fluorescence intensity was analyzed using FlowJo software, and the IC50 of the compound was calculated using XL-Fit software."}, "TYK2 JH2 pseudokinase": {"molecular_target": "TYK2 JH2 pseudokinase (Homo sapiens, UniProt P29597)", "sequence (P29597 589-875 limits assumed)": "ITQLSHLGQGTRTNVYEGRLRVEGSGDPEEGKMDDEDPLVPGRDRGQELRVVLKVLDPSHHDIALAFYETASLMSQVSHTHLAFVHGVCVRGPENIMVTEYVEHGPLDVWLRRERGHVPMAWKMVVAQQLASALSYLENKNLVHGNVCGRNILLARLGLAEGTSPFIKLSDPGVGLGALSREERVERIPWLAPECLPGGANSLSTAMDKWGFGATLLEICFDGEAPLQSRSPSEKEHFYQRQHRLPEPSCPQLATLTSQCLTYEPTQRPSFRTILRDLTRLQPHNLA", "assay": "In vitro TYK2 JH2 enzyme binding assay (TR-FRET)", "procedure": "Purpose: The purpose of this test example was to use a fluorescence resonance energy transfer (TR-FRET) method to test the binding effect of the compound on a TYK2 JH2 pseudokinase, and then evaluate the affinity of the compound for TYK2 JH2.\nDMSO-dissolved compounds were used to prepare 10 mM stock solutions, then 200× compounds having different gradient concentrations were prepared in a compound dilution plate, and transferred to an Echo plate. 75 nL of the compounds were transferred from the Echo plate to a 384-well assay plate using an Echo instrument, and 5 μL of 3×TYK2 JH2 pseudokinase (Bioduro), 5 μL of 3×Tb antibody (Cisbio) and 5 μL of 3×TRACER (Bioduro) were added to the 384-well assay plate, centrifuged for 30 seconds, and incubated at room temperature for 60 minutes."}, "JAK1 JH1": {"molecular_target": "T1, JAK1 JH1 (Homo sapiens, UniProt P23458)", "T1 construct": "5 μL/well of 2×JAK1 JH1/JAK2 JH1/JAK3 JH1/TYK2 JH1 kinase solutions", "T1 sequence (P23458 875-1153 limits assumed)": "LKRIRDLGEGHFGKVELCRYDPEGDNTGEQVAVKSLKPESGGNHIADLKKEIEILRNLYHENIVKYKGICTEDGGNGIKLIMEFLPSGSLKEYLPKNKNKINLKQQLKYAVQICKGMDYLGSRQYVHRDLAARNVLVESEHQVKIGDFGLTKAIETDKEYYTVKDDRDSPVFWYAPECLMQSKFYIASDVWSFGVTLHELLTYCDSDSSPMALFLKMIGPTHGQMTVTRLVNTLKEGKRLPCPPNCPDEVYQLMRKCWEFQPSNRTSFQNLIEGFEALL", "assay": "JAK1 JH1 kinase inhibition (HTRF)", "type": "biochemical", "conditions": "read-out: Inhibition on kinase activity (IC50, μM) JAKI JHI", "procedure": "Purpose: The purpose of this test example was to examine the inhibitory effect of the compound on the kinase activity of JAK1 JH1/JAK2 JH1/JAK3 JH1/TYK2 JH1 using homogeneous time-resolved fluorescence resonance energy transfer (HTRF) technology.\n100 nL/well of compound working solutions were transferred to a 384-well assay plate using an automated micropipetting system, 5 μL/well of 2×JAK1 JH1/JAK2 JH1/JAK3 JH1/TYK2 JH1 kinase solutions or assay buffer were added, uniformly mixed by centrifugation, and incubated at the room temperature 25° C. for 15 minutes. After the completion of incubation, 5 μL of a mixed solution containing a 2×TK-SUB-biotin substrate and ATP was added to each well, uniformly mixed by centrifugation, and incubated at 25° C. for 45 minutes (JAK1/JAK2) or 60 minutes (JAK3/TYK2). After completion of incubation, 10 μL of an assay mixture (TK Antibody-EU and Streptavidin-XL mixture) was added to each well, uniformly mixed by centrifugation, and incubated at 25° C. for 60 minutes (JAK1/JAK2) or 120 minutes (JAK3/TYK2)."}, "JAK2 JH1": {"molecular_target": "T2, JAK2 JH1 (Homo sapiens, UniProt O60674)", "T2 construct": "5 μL/well of 2×JAK1 JH1/JAK2 JH1/JAK3 JH1/TYK2 JH1 kinase solutions", "T2 sequence (O60674 849-1124 limits assumed)": "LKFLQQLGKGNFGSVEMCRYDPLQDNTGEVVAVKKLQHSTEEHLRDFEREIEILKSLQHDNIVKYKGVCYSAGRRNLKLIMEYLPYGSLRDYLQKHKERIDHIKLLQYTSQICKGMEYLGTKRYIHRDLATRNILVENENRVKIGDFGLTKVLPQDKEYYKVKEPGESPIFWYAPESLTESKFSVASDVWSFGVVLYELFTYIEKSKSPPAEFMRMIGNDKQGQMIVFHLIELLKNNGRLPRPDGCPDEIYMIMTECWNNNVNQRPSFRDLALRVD", "assay": "JAK2 JH1 kinase inhibition (HTRF)", "type": "biochemical", "conditions": "read-out: Inhibition on kinase activity (IC50, μM) JAK2 JHI", "protocol": "(§1) After the completion of incubation, 5 μL of a mixed solution containing a 2×TK-SUB-biotin substrate and ATP was added to each well, uniformly mixed by centrifugation, and incubated at 25° C. for 45 minutes (JAK1/JAK2) or 60 minutes (JAK3/TYK2). After completion of incubation, 10 μL of an assay mixture (TK Antibody-EU and Streptavidin-XL mixture) was added to each well, uniformly mixed by centrifugation, and incubated at 25° C. for 60 minutes (JAK1/JAK2) or 120 minutes (JAK3/TYK2). After completion of incubation, the solutions were transferred to a 4° C. freezer for incubation overnight, and fluorescence values were read on an Envision 2104 Multilabel Reader, and the IC50 of the compound was calculated using XL-Fit software."}, "JAK3 JH1": {"molecular_target": "T3, JAK3 JH1 (Homo sapiens, UniProt P52333)", "T3 construct": "5 μL/well of 2×JAK1 JH1/JAK2 JH1/JAK3 JH1/TYK2 JH1 kinase solutions", "T3 sequence (P52333 822-1111 limits assumed)": "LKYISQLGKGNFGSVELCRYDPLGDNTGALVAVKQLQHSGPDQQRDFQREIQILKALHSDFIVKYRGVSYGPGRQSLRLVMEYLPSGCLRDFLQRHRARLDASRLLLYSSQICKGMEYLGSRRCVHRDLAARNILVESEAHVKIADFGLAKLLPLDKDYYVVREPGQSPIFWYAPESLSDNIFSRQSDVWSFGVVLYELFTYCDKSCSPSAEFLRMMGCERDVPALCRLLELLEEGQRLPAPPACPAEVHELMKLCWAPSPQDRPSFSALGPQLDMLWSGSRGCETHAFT", "assay": "JAK3 JH1 kinase inhibition (HTRF)", "type": "biochemical", "conditions": "read-out: Inhibition on kinase activity (IC50, μM) JAK3 JHI", "protocol": "as §1"}, "TYK2 JH1": {"molecular_target": "T4, TYK2 JH1 (Homo sapiens, UniProt P29597)", "T4 construct": "5 μL/well of 2×JAK1 JH1/JAK2 JH1/JAK3 JH1/TYK2 JH1 kinase solutions", "T4 sequence (P29597 897-1176 limits assumed)": "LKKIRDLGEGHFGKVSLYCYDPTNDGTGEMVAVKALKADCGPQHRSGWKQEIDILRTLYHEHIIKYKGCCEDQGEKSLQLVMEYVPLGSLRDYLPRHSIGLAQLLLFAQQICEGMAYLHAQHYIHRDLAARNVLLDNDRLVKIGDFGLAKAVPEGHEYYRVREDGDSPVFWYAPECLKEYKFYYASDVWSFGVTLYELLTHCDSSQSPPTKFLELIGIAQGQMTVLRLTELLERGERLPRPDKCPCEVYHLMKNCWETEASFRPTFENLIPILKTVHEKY", "assay": "TYK2 JH1 kinase inhibition (HTRF)", "type": "biochemical", "conditions": "read-out: Inhibition on kinase activity (IC50, μM) TYK2 JHI", "protocol": "as §1"}}, "note": "pIC50: −log10 of the molar value. Like-named read-outs stand apart in the source and are kept apart here.", "data": [{"compound": "BMS-986165 [reference compound]", "values": [{"measurement": "pIC50", "setting": "[1]", "value": 6.39}]}, {"compound": "CCONC(=O)c1nnc(NC(=O)C2CC2)cc1Nc1cccc(-c2ncn(CCO)n2)c1OC", "note": "[Compound 10, 6-(Cyclopropylcarboxamide)-N-ethoxy-4-((3-(1-(2-hydroxyethyl)-1H-1,2,4-triazol-3-yl)-2-methoxyphenyl)amino)pyridazine-3-carboxamide]", "values": [{"measurement": "pIC50", "setting": "TYK2 JH2 pseudokinase", "value": 9.55}]}, {"compound": "CCONC(=O)c1nnc(NC(=O)C2CC2)cc1Nc1cccc(-c2nc[nH]n2)c1OC", "note": "[Compound 1, 6-(Cyclopropylcarboxamido)-N-ethoxy-4-((2-methoxy-3-(1H-1,2,4-triazol-3-yl)phenyl)amino)pyridazine-3-carboxamide]", "values": [{"measurement": "pIC50", "setting": "[1]; 20 min", "value": "< 4.52"}, {"measurement": "IC50", "setting": "JAK1 JH1", "value": "> 10", "unit": "µM"}, {"measurement": "IC50", "setting": "JAK2 JH1", "value": "> 10", "unit": "µM"}, {"measurement": "IC50", "setting": "JAK3 JH1", "value": "> 10", "unit": "µM"}, {"measurement": "IC50", "setting": "TYK2 JH1", "value": "> 10", "unit": "µM"}, {"measurement": "pIC50", "setting": "TYK2 JH2 pseudokinase", "value": 9.68}]}, {"compound": "CCONC(=O)c1nnc(NC(=O)C2CC2)cc1Nc1cccc(-c2ncn(CCCC(=O)O)n2)c1OC", "note": "[Compound 9, 4-(3-(3-((6-(Cyclopropylcarboxamido)-3-(ethoxycarbamoyl)pyridazine-4-yl)amino)-2-methoxyphenyl)-1H-1,2,4-triazol-1-yl)butanoic acid]", "values": [{"measurement": "pIC50", "setting": "TYK2 JH2 pseudokinase", "value": 9.38}]}, {"compound": "CCONC(=O)c1nnc(NC(=O)C2CC2)cc1Nc1cccc(-c2ncn(CCOC)n2)c1OC", "note": "[Compound 2, 6-(Cyclopropylcarboxamido)-N-ethoxy-4-((2-methoxy-3-(1-(2-methoxyethyl)-1H-1,2,4-triazol-3-yl)phenyl)amino)pyridazine-3-carboxamide]", "values": [{"measurement": "pIC50", "setting": "[1]; 20 min", "value": "< 4.52"}, {"measurement": "IC50", "setting": "JAK1 JH1", "value": "> 10", "unit": "µM"}, {"measurement": "IC50", "setting": "JAK2 JH1", "value": "> 10", "unit": "µM"}, {"measurement": "IC50", "setting": "JAK3 JH1", "value": "> 10", "unit": "µM"}, {"measurement": "IC50", "setting": "TYK2 JH1", "value": "> 10", "unit": "µM"}, {"measurement": "pIC50", "setting": "TYK2 JH2 pseudokinase", "value": 9.72}]}, {"compound": "CCONC(=O)c1nnc(NC(=O)C2CC2)cc1Nc1cccc(-c2ncn(CC(=O)O)n2)c1OC", "note": "[Compound 7, 2-(3-(3-((6-(Cyclopropylcarboxamido)-3-(ethoxycarbamoyl)pyridazine-4-yl)amino)-2-methoxyphenyl)-1H-1,2,4-triazol-1-yl)acetic acid]", "values": [{"measurement": "pIC50", "setting": "TYK2 JH2 pseudokinase", "value": 9.54}]}, {"compound": "CCONC(=O)c1nnc(NC(=O)C2CC2)cc1Nc1cccc(-c2ncn(CCC(=O)O)n2)c1OC", "note": "[Compound 8, 3-(3-(3-((6-(Cyclopropylcarboxamido)-3-(ethoxycarbamoyl)pyridazine-4-yl)amino)-2-methoxyphenyl)-1H-1,2,4-triazol-1-yl)propanoic acid]", "values": [{"measurement": "pIC50", "setting": "TYK2 JH2 pseudokinase", "value": 9.54}]}, {"compound": "CCONC(=O)c1nnc(NC(=O)C2CC2)cc1Nc1cccc(-c2ncn(CCF)n2)c1OC", "note": "[Compound 4, 6-(Cyclopropylcarboxamido)-N-ethoxy-4-((3-(1-(2-fluoroethyl)-1H-1,2,4-triazol-3-yl)-2-methoxyphenyl)amino)pyridazine-3-carboxamide]", "values": [{"measurement": "pIC50", "setting": "TYK2 JH2 pseudokinase", "value": 9.74}]}, {"compound": "CCONC(=O)c1nnc(NC(=O)C2CC2)cc1Nc1cccc(-c2ncn(CC(F)F)n2)c1OC", "note": "[Compound 5, 6-(Cyclopropylcarboxamido)-4-((3-(1-(2,2-difluoroethyl)-1H-1,2,4-triazol-3-yl)-2-methoxyphenyl)amino)-N-ethoxypyridazine-3-carboxamide]", "values": [{"measurement": "pIC50", "setting": "TYK2 JH2 pseudokinase", "value": 9.59}]}]}
